Values quoted from earlier work, collected in EP0712633A1, “Pharmaceutical compositions for topical application” (Blank, Izhak, priority 1994, dated 1996).

Details: 6-carboxylfluorescein

OCCS [2-mercaptoethanol]
increase of plasma levels of the dye compared with a control (0.1% w/v in conjunction with sodium dodecyl sulfate 0.05% w/v): 40 times

O=C(O)CS [calcium thioglycolate]
increase of penetration compared to the control (pretreatment of the skin with 4%): 9 times
